# Calls of active or inactive are those of the source. No cut-off for these calls is given here.
# Legend:
# Hep 3B2 = test: Cytotoxicity against human Hep3B cells assessed as decrease in cell viability after 48 hrs by MTT assay; format: functional, cell-based
# HepG2 [1] = test: Cytotoxicity against human HepG2 cells assessed as decrease in cell viability after 48 hrs by MTT assay; format: functional, cell-based; details: HepG2, 48 h
# HepG2 [2] = test: Induction of apoptosis in human HepG2 cells assessed as nuclear condensation at 50 uM after 48 hrs by […] staining based fluorescence microscopy; format: functional, cell-based
# HepG2 [3] = test: Induction of apoptosis in human HepG2 cells assessed as viable cells at 50 uM after 48 hrs by Annexin V-FITC/PI staining based flow cytometry (reference value: 95.7%); format: functional; details: HepG2, 48 h, read-out: Activity
# HepG2 [4] = test: Cell cycle arrest in human HepG2 cells assessed as <2N DNA content at 50 uM after 48 hrs by PI staining based flow cytometry (reference value: 4.18%); format: functional
# HepG2 [5] = test: Induction of apoptosis in human HepG2 cells assessed as rounding of cells at 50 uM after 48 hrs by phase contrast microscopy; format: functional, cell-based
# HepG2 [6] = test: Induction of apoptosis in human HepG2 cells assessed as apoptotic bodies at 50 uM after 48 hrs by phase contrast microscopy; format: functional, cell-based
# HepG2 [7] = test: Induction of apoptosis in human HepG2 cells assessed as late apoptotic cells at 50 uM after 48 hrs by Annexin V-FITC/PI staining based flow cytometry (reference value: 2.03%); format: functional
# HepG2 [8] = test: Cell cycle arrest in human HepG2 cells assessed as >4N DNA content at 50 uM after 48 hrs by PI staining based flow cytometry (reference value: 2.04%); format: functional
# HepG2 [9] = test: Induction of apoptosis in human HepG2 cells assessed as shrinkage of cells at 50 uM after 48 hrs by phase contrast microscopy; format: functional, cell-based
# HepG2 [10] = test: Cell cycle arrest in human HepG2 cells assessed as 2N DNA content at 50 uM after 48 hrs by PI staining based flow cytometry (reference value: 70.6%); format: functional
# HepG2 [11] = test: Cell cycle arrest in human HepG2 cells assessed as 4N DNA content at 50 uM after 48 hrs by PI staining based flow cytometry (reference value: 15.2%); format: functional
# HepG2 [12] = test: Induction of intracellular ROS accumulation in human HepG2 cells at 50 uM after 48 hrs by DCFH probe based flow cytometry; format: functional, cell-based
# HepG2 [13] = test: Induction of apoptosis in human HepG2 cells assessed as necrotic cells at 50 uM after 48 hrs by Annexin V-FITC/PI staining based flow cytometry (reference value: 0.62%); format: functional
# HepG2 [14] = test: Induction of apoptosis in human HepG2 cells assessed as early apoptotic cells at 50 uM after 48 hrs by Annexin V-FITC/PI staining based flow cytometry (reference value: 1.61%); format: functional
# HepG2 [15] = test: Cell cycle arrest in human HepG2 cells assessed as accumulation at S phase at 50 uM after 48 hrs by PI staining based flow cytometry (reference value: 7%); format: functional
smiles,measurement,setting,value
COc1cc([C@H]2Oc3c(OC)cc(/C=C/C=O)cc3[C@@H]2CO)ccc1O,IC50,Hep 3B2,22.4 µM
same,IC50,HepG2 [1],38.1 µM
COc1cc([C@H]2Oc3c(OC)cc(/C=C/CO)cc3[C@@H]2CO)ccc1O,Activity,HepG2 [2],Active
same,viability at 50 µM,HepG2 [3],86%
same,Activity,HepG2 [4],3.86%
same,Activity,HepG2 [5],Active
same,Activity,HepG2 [6],Active
same,Activity,HepG2 [7],3.87%
same,IC50,Hep 3B2,52.3 µM
same,Activity,HepG2 [8],0.6%
same,IC50,HepG2 [1],35.6 µM
same,Activity,HepG2 [9],Active
same,Activity,HepG2 [10],70.2%
same,Activity,HepG2 [11],19.1%
same,Activity,HepG2 [12],Active
same,Activity,HepG2 [13],1.71%
same,Activity,HepG2 [14],8.39%
same,Activity,HepG2 [15],6.2%
COc1cc(C2Oc3c(OC)cc(/C=C/CO)cc3C2CO)ccc1O (racemic),IC50,Hep 3B2,65.5 µM
same,IC50,HepG2 [1],78.6 µM
COc1cc(C2Oc3c(OC)cc(/C=C/C=O)cc3C2CO)cc(OC)c1O (racemic),IC50,Hep 3B2,76.8 µM
same,IC50,HepG2 [1],80.5 µM
COc1cc([C@H]2Oc3c(OC)cc(/C=C/C=O)cc3[C@@H]2CO)cc(OC)c1O,IC50,Hep 3B2,72.8 µM
same,IC50,HepG2 [1],88.7 µM
COc1cc(C2Oc3c(OC)cc(/C=C/C=O)cc3C2CO)ccc1O (racemic),IC50,Hep 3B2,29.3 µM
same,IC50,HepG2 [1],36.5 µM
COc1cc([C@@H]2Oc3c(OC)cc(/C=C/C=O)cc3[C@H]2CO)cc(OC)c1O,IC50,Hep 3B2,60.7 µM
same,IC50,HepG2 [1],104 µM
COc1cc([C@@H]2Oc3c(OC)cc(/C=C/C=O)cc3[C@H]2CO)ccc1O,IC50,Hep 3B2,31.5 µM
same,IC50,HepG2 [1],38.7 µM
COc1cc([C@@H]2Oc3c(OC)cc(/C=C/CO)cc3[C@H]2CO)ccc1O [DEHYDROCONIFERYL ALCOHOL],Activity,HepG2 [2],Active
same,viability at 50 µM,HepG2 [3],94.4%
same,Activity,HepG2 [4],3.76%
same,Activity,HepG2 [5],Active
same,Activity,HepG2 [6],Active
same,Activity,HepG2 [7],2.37%
same,IC50,Hep 3B2,54.6 µM
same,Activity,HepG2 [8],1.14%
same,IC50,HepG2 [1],104 µM
same,Activity,HepG2 [9],Active
same,Activity,HepG2 [10],70.1%
same,Activity,HepG2 [11],16.8%
same,Activity,HepG2 [12],inactive
same,Activity,HepG2 [13],0.74%
same,Activity,HepG2 [14],2.5%
same,Activity,HepG2 [15],8.2%
